How the values were obtained:
Format in all cases: in vivo
[1] = system: hepcidin knockout mice (HAMP−/−); experiment: Mild renal IRI in HAMP-/- mice: 4-HNE staining and immunofluorescence of neutrophils and CD11b cells; settings: for kidney 4-HNE immunoreactivity: hepcidin reconstituted HAMP-/- IRI, FIG. 8c; for kidney neutrophil and CD11b cell infiltration: hepcidin reconstitution in HAMP-/- IRI mice, FIGS. 8e and g
Procedure: (§1) All experiments were performed in accordance with the National Institutes of Health and Institutional Animal Care and Use Guidelines. The Animal Care and Use Committee of the University of Virginia approved all procedures and protocols. C57BL/6 mice from the Jackson Laboratory and hepcidin knockout mice (HAMP−/−), a kind gift from Dr Cindy Roy (John Hopkins University) were used in this study. All experiments were performed on 8-10 weeks old male mice. Kidney ischemia-reperfusion surgery was performed as previously reported (44). The core temperature of the mice was maintained between 34° C. and 36° C. using a heating pad. After anesthetizing the mice (ketamine, 12 mg/ml; atropine, 0.48 mg/ml; xylazine, 24 mg/ml; […] mixture administered per 20 g body weight), bilateral flank incisions were made, both renal pedicles were exposed, and cross-clamped for 26 minutes (severe I/R injury) or 24 minutes (mild I/R injury). After the determined ischemia, clamps were removed, and kidneys were allowed to reperfuse for 24 hours. Ambient postoperative air temperature was maintained between 30° C. and 32° C. until mice had fully recovered. Sham-operated animals underwent bilateral flank incisions without clamping of renal pedicles. Twenty-four hours later, mice were euthanized, and tissues were harvested.
Kidney sections were embedded in paraffin, 3 μm sectioned, and stained for 4 Hydroxynonenal (4-HNE) using standard protocols. Briefly sections were deparaffanized in xylenes, rehydrated in a series of ethanol rinses from 100% to 70% ethanol, then washed in distilled water. Sections were then incubated in 3% H2O2 in methanol for 20 minutes. After treating with Avidin and Biotin for 15 minutes each (Vector) the sections were blocked in blocking buffer containing 10% donkey serum in sodium phosphate buffer (NaPO4 buffer), at room temperature for 30 minutes. 4-HNE antibody was diluted in 1% BSA in NaPO4 buffer (Abcam; 1:1000) and added to sections overnight at 4° C. Sections were washed 3 times with NaPO4 buffer for 5 minutes each and incubated with biotinylated donkey anti-goat secondary antibody (Vector) for 1 hour. Sections were washed 3 times in NaPO4 buffer, and then incubated in ABC ready-to-use reagent (Vector Labs) for 30 minutes. After another 3 washes with NaPO4 buffer the sections exposed to diaminobenzidine (DAB) for 5 minutes followed by washing with in distilled water. The sections were counter-stained with 1% methylene blue solution, washed in water and dehydrated with xylene. Sections were imaged by using a Zeiss Axio Imager Z2/Apotome Microscope fitted with motorized focus drives and motorized XYZ microscope stage and integrated to a workstation running StereoInvestigator software, version 10.51 (MBF Bioscience, Williston, Vt.) […]

[2] = system: hepcidin knockout mice (HAMP−/−); experiment: Mild renal IRI in HAMP-/- mice: plasma creatinine, histology, NGAL; settings: for plasma creatinine: HAMP-/- mice, single 50 μg bolus of hepcidin 24 hours before 24 min ischemia, 24 hours reperfusion, p<0.0007; for renal histology (H&E): hepcidin treated HAMP-/- IRI mice
Procedure: as §1
Renal function was determined by measurement of plasma creatinine, determined using a modified Jaffe colorimetric assay (44).
Kidneys were fixed in buffered formalin for 48 h, embedded in paraffin, sectioned (3-μm thickness), and stained with hematoxylin and eosin (H&E). The extent of acute tubular necrosis (ATN) following IRI was assessed using H&E stained kidney sections. An investigator blinded to the sample identities was used for these analyses to have an unbiased approach.
For RNA isolation, frozen tissues were re-suspended in RLT buffer (Qiagen Inc, Valencia, Calif.) and homogenized using TissueLyser system (Qiagen Inc, Valencia, Calif.). Total RNA from tissue homogenate was purified using RNAeasy mini kit (Qiagen Inc, Valencia, Calif.) following manufacturers instructions. 1 μg of RNA was used to synthesize cDNA using the iScript cDNA synthesis kit (Bio-Rad). The cDNA template was mixed with iTAQ SYBR green universal super mix (Bio-Rad) and quantitative PCR was carried out on CFX Connect system (Bio-Rad). Predesigned primers for Caspase-3 and Bcl-2 were purchased from Bio-rad. Glyceraldehyde-3-phosphate dehydrogenase (GAPDH) was amplified in parallel and used as the reference gene in quantification. Data is expressed as the relative gene expression and was calculated using the 2 (−ρρC(T)) method.
Given the significance of hepcidin-mediated ferroportin regulation in preventing renal IRI, we hypothesized that genetic hepcidin deficiency would aggravate IRI. […] There was no significant rise in plasma creatinine after mild IRI in the WT mice and sham operated HAMP^−/− mice (FIG. 6a). […] Renal histology further corroborated the deleterious effect of hepcidin deficiency in AKI. There were higher numbers of casts and necrotic tubules in the S1, S2 and S3 segments in HAMP^−/− kidneys after IRI (FIG. 6b, and Sup FIG. 3b). To investigate if hepcidin re-constitution could rescue HAMP^−/− mice from IRI, we injected these mice with a single 50 μg bolus of hepcidin, 24 hours before renal ischemia and sacrificed them 24 hours after reperfusion. Strikingly, a single injection of hepcidin afforded an almost complete protection against IRI in the HAMP^−/− mice.

[3] = system: hepcidin knockout mice (HAMP−/−); experiment: Mild renal IRI in HAMP-/- mice: serum iron and tissue non-heme iron; settings: for serum iron / liver non-heme iron content: HAMP-/- hepcidin-IRI vs untreated IRI p<0.005, vs sham p<0.0005; for serum iron: FIG. 6e; for liver non-heme iron content: FIG. 6f
Procedure: as §1
Serum iron (Abcam), hepcidin (Intrinsic Lifescience) and IL-6 levels (eBioscience) were measured using commercial ELISA kits, as per manufacturers instructions.
Non-heme iron content in tissue was measured using the method described in published literature with slight modifications (60). Briefly, tissues were accurately weighed, finely cut and placed for 20 hours at 65° C. in a solution of 3M HCl/0.61 M trichloroacetic acid. After cooling to room temperature, the acid extract was spun at 12,000 rpm to collect the supernatant. 0.1 mL of the supernatant was incubated with chromogen solution (1.86 mM bathophenanthroline sulfonate/143 mM thioglycollic acid) for 20 minutes, and OD was measured at 535 nm. A standard curve was generated using an iron standard solution (Ricca Iron AA standard) against water as the blank. Non-heme iron content (μg/g) was calculated using the equation described (60).
We measured the serum iron and non-heme iron content in the kidney, spleen and liver of sham, untreated and hepcidin injected HAMP^−/− mice after IRI.

Mouse hepcidin 25 (DTNFPICIFCCKCCNNSQCGICCKT; listed as Mus musculus)
kidney 4-HNE immunoreactivity [1]: little reactivity to 4 HNE
kidney 4-HNE immunoreactivity ([1]; listed as hepcidin): far less immunoreactivity to 4-HNE
kidney neutrophil and CD11b cell infiltration [1]: dramatically reduced
kidney neutrophil and CD11b cell infiltration ([1]; listed as hepcidin): almost completely prevented kidney injury-associated neutrophil or CD11b cell infiltration
kidney NGAL expression ([2]; HAMP-/- IRI Vs HAMP-/- Hepcidin-IRI, p<0.05): significantly lowered NGAL expression
plasma creatinine [2]: not significantly different than shams and WT mice
plasma creatinine ([2]; listed as hepcidin): significantly lower compared to untreated mice with levels comparable to that in sham-operated mice
renal histology (H&E) [2]: Hepcidin mediated protection of the kidney after IRI
renal histology (H&E) ([2]; listed as hepcidin): remarkable preservation of renal histology
serum iron [3]: significantly reduced serum iron
serum iron ([3]; listed as hepcidin): significantly lowered serum iron
liver non-heme iron content [3]: significantly higher non-heme iron
liver non-heme iron content ([3]; listed as hepcidin): significantly higher than the untreated
splenic iron content by Prussian blue staining ([3]; hepcidin-treated HAMP-/- mice): qualitative increases in splenic iron content
non-heme iron content of the spleen and kidneys ([3]; sham, untreated and hepcidin injected HAMP-/- mice after IRI (data not shown)): could not detect quantitative differences
